In brackets after ≈: the same amount, converted by molar mass.
Assay: Toxicity against brine shrimp
Assay type: organism-based
Details: artemia, in vivo

**Q.** With `C/C(Cl)=C/C=C/C(Cl)=C/C=C/C=C/C=C/C=C/C(O)=C1\C(=O)[C@H](CC(N)=O)N([C@@H]2OC[C@@H](O)[C@H](O)[C@H]2O[C@@H]2O[C@H](CO)[C@@H](O[C@@H]3O[C@H](C)[C@@H](O)[C@@H]3O)[C@@H]2O)C1=O` [AURANTOSIDE C] as the molecule, how does the LC50 read?
**A.** The LC50 was 50 µg/mL (≈ 60.3 µM).

From ChEMBL document CHEMBL1158002, “Aurantoside C, a new tetramic acid glycoside from the sponge Homophymia conferta” (J Nat Prod, 1999)
